From article PMC6324813, “Biological evaluation of isoflavonoids from Genista halacsyi using estrogen-target cells: Activities of glucosides compared to aglycones” (PLoS ONE, 2019)

How the values were obtained:
[1] = tested on: MCF-7 cells; assay: MCF-7 cell proliferation (MTT); type: cell-based, human; conditions: Homo sapiens, MCF7, 72 h; read-out: Induction of cell proliferation (MCF-7 cells) Agonism at 1μΜ (% of 0.1nM E2)
Experimental: Test compound effects on the proliferation of MCF-7 and MDA-MB-231 cells were assessed as previously described.

[2] = tested on: MC3T3-E1 cells; assay: Differentiation of MC3T3-E1 cells to osteoblasts, AlkP activity; type: cell-based, mouse; conditions: DF + E2 1 nM or compound 1 μM; 6 days; DF plus vehicle = 100
Experimental: (§1) Differentiation of MC3T3-E1 cells was carried out in 96-well plates using 3,300 cells per well and was assessed via induction of, i) Alkaline Phosphatase (AlkP) activity after 6 days of treatment and, ii) mineralization of extracellular matrix after 21 days of treatment. Briefly, 24 h after plating, the cells were incubated with test compounds or vehicle i.e. the compound diluent (0.1% DMSO) and then exposed for 6 days to differentiation medium in presence or absence of differentiation factors (cf. Cell culture) with a change to fresh compounds and medium in 3 days. AlkP activity was assessed at 405 nm in a Safire II microplate reader using as substrate p-nitrophenyl-phosphate (pNPP, Sigma-Aldrich) as already described. Mineralization of MC3T3 cells was assessed by staining with Alizarin red (Fluka). Cells were cultured and treated as described above for 21 days, with media and test compounds changed every 3 days, and calcium phosphate deposition was assayed as described by Gregory et al.. Briefly, the cells were washed twice with PBS and fixed with 70% ethanol for 15 min on ice. The cells were stained with Alizarin red solution (40 mM, pH 4.2) for 30 min at room temperature, washed twice with distilled water and once with PBS. The dye from the stained mineral deposits was extracted with 33% acetic acid and the absorbance was measured at 405 nm using a Safire II microplate reader (Tecan).

[3] = tested on: MC3T3-E1 cells; assay: Mineralization of MC3T3-E1 cells, Alizarin red staining; type: cell-based, mouse; conditions: DF + E2 1 nM or compound 1 μM; 21 days; DF plus vehicle = 100
Experimental: as §1, with “Differentiation of MC3T3-E1 cells to osteoblasts has been extensively used to screen for compounds that may promote bone formation. Differentiation” for “Differentiation”

[4] = tested on: RAW 264.7 cells; assay: Differentiation of RAW 264.7 cells to osteoclasts, TRAP activity; type: cell-based, mouse; conditions: RANKL 50 ng/ml + E2 1 nM or compound 1 μM; 3 days; DF plus vehicle = 100
Experimental: Clones of RAW 264.7 cells competent to differentiate to multinuclear osteoclasts upon activation with RANKL provide valuable information on the regulation of osteoclast differentiation. Differentiation-competent RAW cells (ATCC TIB-71) were seeded in 96-well plates at a density of 9,600 cells per well. The cells were plated in the presence of test compounds or compound diluent (0.1% DMSO) and, 4 h after plating, were exposed for 3 days to 50 ng/ml RANKL or to plain medium. Osteoclastic differentiation was assessed via induction of Tartrate-Resistant Acid Phosphatase (TRAP) activity. The cells were washed with PBS and incubated with 25μl lysis buffer (0.4 M NaCl, 25 mM Hepes pH 7.7, 1.5 mM MgCl2, 0.2 mM EDTA, 1% NP40) for 5 min on ice.

[5] = tested on: TNFα mRNA; assay: LPS-induced TNFα mRNA expression in RAW 264.7 cells (RT-qPCR); type: cell-based, mouse; conditions: for reduction of LPS induction of TNFα mRNA expression: 3 μM, LPS 100 ng/ml 1 h; for suppression of LPS-stimulated TNFα mRNA expression: pre-incubated with 3 μM isoflavonoid prior to the stimulation
Experimental: To assess TNFα mRNA expression, RAW 264.7 cells were plated in 6-well plates in alpha-MEM medium supplemented with 10% DCC-FBS, at a density of 300,000 cells per well, maintained in culture for 72 h and then exposed to vehicle (0.3% DMSO) or 3 μΜ test compound for 20 min or 24 h prior to stimulation with 100 ng/ml lipopolysaccharide (Sigma L4391) for 1 h. Extraction of total RNA, reverse transcription (RT) and quantitative PCR (qPCR) analysis of mRNA expression levels were performed as previously described. Relative gene expression levels were calculated by the comparative Ct method using the formula 2^(-ΔCt). Tumor necrosis factor alpha (TNFα) mRNA levels were normalized to the respective levels of […] (GAPDH). Test compound effects on the relative number of viable cells were assessed using crystal violet and a Safire II microplate reader (Tecan) as previously described. […] The following primers were used: […]

[6] = biological target: ERβ (Homo sapiens, UniProt Q92731); assay: ERE-dependent luciferase gene transcription in HEK:ERβ cells; type: cell-based; design: expressed in transfected cells; host or cells: HEK-293 (HEK:ERβ clone, with pERE-tk-Luciferase); conditions: 18 h
Chain of ERβ (Q92731 whole entry): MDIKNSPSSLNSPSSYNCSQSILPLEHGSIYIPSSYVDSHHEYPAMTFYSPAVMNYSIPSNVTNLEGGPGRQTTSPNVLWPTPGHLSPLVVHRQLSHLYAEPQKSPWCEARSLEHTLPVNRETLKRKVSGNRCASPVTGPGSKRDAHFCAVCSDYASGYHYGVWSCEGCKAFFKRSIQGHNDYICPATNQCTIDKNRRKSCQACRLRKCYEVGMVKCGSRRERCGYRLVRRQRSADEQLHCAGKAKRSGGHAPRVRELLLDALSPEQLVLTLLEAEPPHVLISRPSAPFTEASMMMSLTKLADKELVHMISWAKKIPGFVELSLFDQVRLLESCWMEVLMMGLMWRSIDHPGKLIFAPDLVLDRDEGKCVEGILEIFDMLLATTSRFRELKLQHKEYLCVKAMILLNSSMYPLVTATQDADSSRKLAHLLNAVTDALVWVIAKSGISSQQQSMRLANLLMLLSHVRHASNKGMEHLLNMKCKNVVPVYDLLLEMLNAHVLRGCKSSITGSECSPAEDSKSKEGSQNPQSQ

| Compound | activation at 1 µM [1] | Differentiation of MC3T3-E1 cells, AlkP expression (%) [2] | Differentiation of MC3T3-E1 cells, Alizarin red staining (%) [3] | Differentiation of RAW 267.4 cells, TRAP expression (%) [4] | reduction of LPS induction of TNFα mRNA expression ([5]; pre-treatment 20 min) | reduction of LPS induction of TNFα mRNA expression ([5]; pre-treatment 24 h) | suppression of LPS-stimulated TNFα mRNA expression [5] | activation at 1 µM ([6]; read-out: Induction of luciferase gene transcription through ERβ, HEK:ERβ cells, Agonism at 1μΜ (% of 0.1nM E2)) | Induction of luciferase gene transcription through ERβ, HEK:ERβ cells, Agonism at 1μΜ (% of 0.1nM E2) ([6]; compounds 1 μM, estradiol 0.1 nM) |
| --- | --- | --- | --- | --- | --- | --- | --- | --- | --- |
| O=c1c(-c2ccc(OC3O[C@H](CO)[C@@H](O)[C@H](O)[C@H]3O)cc2)coc2cc(OC3O[C@H](CO)[C@@H](O)[C@H](O)[C@H]3O)cc(O)c12 (stereo partly drawn) [Compound 11, 7,4΄-di-O-glucopyranosylgenistein] | 79 ± 5% | 120±6 % | 120±5% | 112±9% | 30% | 29% | ~ 30% | 80 ± 20% | – |
| O=c1c(-c2ccc(O)cc2)coc2cc(O[C@@H]3O[C@H](CO)[C@@H](O)[C@H](O)[C@H]3O)cc(O)c12 [Compound 12, 7-O-β-D-glucopyranosyl-genistein] | 79 ± 9% | 125±8 % | 137±14% | 110±5% | – | 20% | marginally effective | – | 121 ± 18 (Full) % of 0.1nM E2 |
